# From ChEMBL document CHEMBL1201861, “Genomics of Drug Sensitity in Cancer screening data, Wellcome Trust Sanger Institute”
# Legend:
# Test in all cases: cells
# DOHH-2 = type: functional, cell-based; details: Homo sapiens;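 also: growth inhibition of human DOHH-2 cells, read out with a cell viability assay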
# Description: SANGER: Inhibition of human DOHH-2 cell growth in a cell viability assay.
# OMC-1 = type: functional, cell-based, Homo sapiens; details: Homo sapiens, OMC-1;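 also: growth inhibition of the OMC-1 cell line, measured by a cell viability assay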
# Description: SANGER: Inhibition of human OMC-1 cell growth in a cell viability assay.
# HCC 2998 = type: functional, cell-based, Homo sapiens; details: Homo sapiens, HCC 2998;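 also: growth inhibition of human HCC2998 cells, measured with a cell viability read-out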
# Description: SANGER: Inhibition of human HCC2998 cell growth in a cell viability assay.
# TE-6 = type: functional, cell-based, Homo sapiens; details: Homo sapiens, TE-6;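 also: growth inhibition of TE-6 cells, read out with a cell viability assay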
# Description: SANGER: Inhibition of human TE-6 cell growth in a cell viability assay.
# HT = type: functional, cell-based; details: Homo sapiens
# Description: SANGER: Inhibition of human HT cell growth in a cell viability assay.
# no-10 = type: functional, cell-based, Homo sapiens; details: Homo sapiens;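 also: growth inhibition of no-10 cells, read out with a cell viability assay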
# Description: SANGER: Inhibition of human no-10 cell growth in a cell viability assay.
# SW780 = type: functional, cell-based, Homo sapiens; details: Homo sapiens, SW780;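 also: growth inhibition of the cells, read out with a cell viability assay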
# Description: SANGER: Inhibition of human SW780 cell growth in a cell viability assay.
# MKN-7 = type: functional, cell-based, Homo sapiens; details: Homo sapiens, MKN-7;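 also: growth inhibition of MKN-7 cells, read out with a cell viability assay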
# Description: SANGER: Inhibition of human MKN7 cell growth in a cell viability assay.
# EM-2 = type: functional, cell-based; details: Homo sapiens;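 also: growth inhibition of EM-2 cells, read out with a cell viability assay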
# Description: SANGER: Inhibition of human EM-2 cell growth in a cell viability assay.
# KM12 = type: functional, cell-based, Homo sapiens; details: Homo sapiens, KM12;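 also: KM12 cell growth inhibition, read out with a cell viability assay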
# Description: SANGER: Inhibition of human KM12 cell growth in a cell viability assay.
# NCI-H2030 = type: functional, cell-based, Homo sapiens; details: Homo sapiens, NCI-H2030;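 also: growth inhibition of human NCI-H2030 cells, read out by a cell viability assay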
# Description: SANGER: Inhibition of human NCI-H2030 cell growth in a cell viability assay.
# AM-38 = type: functional, cell-based, Homo sapiens; details: Homo sapiens, AM-38;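 also: growth inhibition of AM-38 cells of human origin, read out by a cell viability assay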
# Description: SANGER: Inhibition of human AM-38 cell growth in a cell viability assay.
# NB6 = type: functional, cell-based, Homo sapiens; details: Homo sapiens, NB6;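 also: growth inhibition of NB6 cells, read out by a cell viability assay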
# Description: SANGER: Inhibition of human NB6 cell growth in a cell viability assay.
# NCI-H2052 = type: functional, cell-based, Homo sapiens; details: Homo sapiens, NCI-H2052;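 also: growth inhibition of NCI-H2052 cells, read out with a cell viability assay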
# Description: SANGER: Inhibition of human NCI-H2052 cell growth in a cell viability assay.
# RS4-11 = type: functional, cell-based; details: Homo sapiens;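 also: growth inhibition of RS4-11 cells, read out by a cell viability assay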
# Description: SANGER: Inhibition of human RS4-11 cell growth in a cell viability assay.
# SW 962 = type: functional, cell-based, Homo sapiens; details: Homo sapiens, SW 962;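 also: growth inhibition of human SW962 cells, read out by a cell viability assay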
# Description: SANGER: Inhibition of human SW962 cell growth in a cell viability assay.
# EW-16 = type: functional, cell-based, Homo sapiens; details: Homo sapiens, EW-16;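 also: growth inhibition of human EW-16 cells, read out as cell viability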
# Description: SANGER: Inhibition of human EW-16 cell growth in a cell viability assay.
# SW 954 = type: functional, cell-based, Homo sapiens; details: Homo sapiens, SW 954;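 also: growth inhibition of SW954 human cancer cells, read out as cell viability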
# Description: SANGER: Inhibition of human SW954 cell growth in a cell viability assay.
# A704 = type: functional, cell-based, Homo sapiens; details: Homo sapiens, A704;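 also: growth inhibition of human A704 cells, read out with a cell viability assay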
# Description: SANGER: Inhibition of human A704 cell growth in a cell viability assay.
# SBC-5 = type: functional, cell-based, Homo sapiens; details: Homo sapiens, SBC-5;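 also: cell viability assay read-out, IC50 is the concentration that inhibits growth of the cells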
# Description: SANGER: Inhibition of human SBC-5 cell growth in a cell viability assay.
# COLO-320-HSR = type: functional, cell-based; details: Homo sapiens;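 also: growth inhibition of COLO-320-HSR cells, determined with a cell viability assay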
# Description: SANGER: Inhibition of human COLO-320-HSR cell growth in a cell viability assay.
# ES6 = type: functional, cell-based, Homo sapiens; details: Homo sapiens, ES6;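 also: growth inhibition of human ES6 cells, read out with a cell viability assay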
# Description: SANGER: Inhibition of human ES6 cell growth in a cell viability assay.
# MHH-NB-11 = type: functional, cell-based, Homo sapiens; details: Homo sapiens, MHH-NB-11;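 also: growth inhibition of human MHH-NB-11 cells, read out by a cell viability assay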
# Description: SANGER: Inhibition of human MHH-NB-11 cell growth in a cell viability assay.
# NH-12 = type: functional, cell-based, Homo sapiens; details: Homo sapiens, NH-12;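 also: growth inhibition of NH-12 cells, read out with a cell viability assay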
# Description: SANGER: Inhibition of human NH-12 cell growth in a cell viability assay.
# TE-11 = type: functional, cell-based, Homo sapiens; details: Homo sapiens, TE-11;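 also: growth inhibition of human TE-11 cells, read out by a cell viability assay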
# Description: SANGER: Inhibition of human TE-11 cell growth in a cell viability assay.
# KINGS-1 = type: functional, cell-based, Homo sapiens; details: Homo sapiens, KINGS-1;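 also: cell viability assay measuring suppression of KINGS-1 cell growth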
# Description: SANGER: Inhibition of human KINGS-1 cell growth in a cell viability assay.
# DB = type: functional, cell-based; details: Homo sapiens
# Description: SANGER: Inhibition of human DB cell growth in a cell viability assay.
# SN12C = type: functional, cell-based, Homo sapiens; details: Homo sapiens, SN12C;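 also: growth inhibition of human SN12C cells, measured by a cell viability assay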
# Description: SANGER: Inhibition of human SN12C cell growth in a cell viability assay.
# GR-ST = type: functional, cell-based; details: Homo sapiens
# Description: SANGER: Inhibition of human GR-ST cell growth in a cell viability assay.
# NCI-H727 = type: functional, cell-based, Homo sapiens; details: Homo sapiens, NCI-H727;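 also: growth inhibition of human NCI-H727 cells, read out with a cell viability assay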
# Description: SANGER: Inhibition of human NCI-H727 cell growth in a cell viability assay.
# SW837 = type: functional, cell-based, Homo sapiens; details: Homo sapiens, SW837;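 also: growth inhibition of SW837 cells, determined with a cell viability assay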
# Description: SANGER: Inhibition of human SW837 cell growth in a cell viability assay.
# GAMG = type: functional, cell-based, Homo sapiens; details: Homo sapiens, GAMG;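 also: cell growth inhibition measured by a viability assay in the GAMG human cell line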
# Description: SANGER: Inhibition of human GAMG cell growth in a cell viability assay.
# TGBC1TKB = type: functional, cell-based, Homo sapiens; details: Homo sapiens, TGBC1TKB;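 also: growth inhibition of TGBC1TKB cells, read out by a cell viability assay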
# Description: SANGER: Inhibition of human TGBC1TKB cell growth in a cell viability assay.
# A2058 = type: functional, cell-based; details: Homo sapiens;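 also: reduction of A2058 cell growth, read out with a viability assay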
# Description: SANGER: Inhibition of human A2058 cell growth in a cell viability assay.
# DOK = type: functional, cell-based, Homo sapiens; details: Homo sapiens, DOK;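 also: cell viability assay read-out, values reflect inhibition of cell growth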
# Description: SANGER: Inhibition of human DOK cell growth in a cell viability assay.
# COLO-824 = type: functional, cell-based, Homo sapiens; details: Homo sapiens, COLO-824
# Description: SANGER: Inhibition of human COLO-824 cell growth in a cell viability assay.
# NCI-N87 = type: functional, cell-based, Homo sapiens; details: Homo sapiens, NCI-N87;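 also: growth inhibition of human NCI-N87 cells, read out with a cell viability assay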
# Description: SANGER: Inhibition of human NCI-N87 cell growth in a cell viability assay.
# U2OS = type: functional, cell-based, Homo sapiens, U-2-OS; details: Homo sapiens, U2OS;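 also: growth inhibition of human U-2-OS cells, determined with a cell viability assay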
# Description: SANGER: Inhibition of human U-2-OS cell growth in a cell viability assay.
# D-263MG = type: functional, cell-based, Homo sapiens; details: Homo sapiens, D-263MG
# Description: SANGER: Inhibition of human D-263MG cell growth in a cell viability assay.
# BXPC-3 = type: functional, cell-based, Homo sapiens; details: Homo sapiens, BXPC-3;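 also: growth inhibition of human BxPC-3 cells, read out by a cell viability assay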
# Description: SANGER: Inhibition of human BxPC-3 cell growth in a cell viability assay.
# A 172 = type: functional, cell-based, Homo sapiens; details: Homo sapiens, A 172;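 also: growth inhibition of A172 cells, measured with a cell viability readout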
# Description: SANGER: Inhibition of human A172 cell growth in a cell viability assay.
# HOP-92 = type: functional, cell-based, Homo sapiens; details: Homo sapiens, HOP-92;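 also: cell viability readout, with IC50 reflecting inhibition of HOP-92 cell growth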
# Description: SANGER: Inhibition of human HOP-92 cell growth in a cell viability assay.
# COLO-679 = type: functional, cell-based, Homo sapiens; details: Homo sapiens, COLO-679
# Description: SANGER: Inhibition of human COLO-679 cell growth in a cell viability assay.
# SW1710 = type: functional, cell-based, Homo sapiens; details: Homo sapiens, SW1710;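 also: growth inhibition of SW1710 cells, determined with a cell viability assay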
# Description: SANGER: Inhibition of human SW1710 cell growth in a cell viability assay.
# 647-V = type: functional, cell-based, Homo sapiens; details: Homo sapiens, 647-V;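 also: growth inhibition of 647-V cells, read out with a cell viability assay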
# Description: SANGER: Inhibition of human 647-V cell growth in a cell viability assay.
# UMC-11 = type: functional, cell-based, Homo sapiens; details: Homo sapiens, UMC-11;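 also: growth inhibition of UMC-11 cells, read out with a cell viability assay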
# Description: SANGER: Inhibition of human UMC-11 cell growth in a cell viability assay.
# SK-MES-1 = type: functional, cell-based, Homo sapiens; details: Homo sapiens, SK-MES-1;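 also: growth inhibition of human SK-MES-1 cells, read out with a cell viability assay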
# Description: SANGER: Inhibition of human SK-MES-1 cell growth in a cell viability assay.
# LS-1034 = type: functional, cell-based, Homo sapiens; details: Homo sapiens, LS-1034
# Description: SANGER: Inhibition of human LS-1034 cell growth in a cell viability assay.
# EOL1 = type: functional, cell-based; details: Homo sapiens;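 also: growth inhibition of EoL-1 cells, read out by a cell viability assay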
# Description: SANGER: Inhibition of human EoL-1-cell cell growth in a cell viability assay.
# MIA PaCa-2 = type: functional, cell-based, Homo sapiens; details: Homo sapiens, MIA PaCa-2;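 also: growth inhibition of MIA PaCa-2 cells, read out with a cell viability assay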
# Description: SANGER: Inhibition of human MIA-PaCa-2 cell growth in a cell viability assay.
# KY821 = type: functional, cell-based; details: Homo sapiens;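 also: growth inhibition of human KY821 cells, read out by a cell viability assay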
# Description: SANGER: Inhibition of human KY821 cell growth in a cell viability assay.
# HCC1569 = type: functional, cell-based, Homo sapiens; details: Homo sapiens, HCC1569;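 also: growth inhibition of human HCC1569 cells, read out with a cell viability assay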
# Description: SANGER: Inhibition of human HCC1569 cell growth in a cell viability assay.
compound,measurement,setting,value
CCOc1nc(NC(=O)Cc2cc(OC)ccc2OC)cc(N)c1C#N,IC50,DOHH-2,> 10 µM
same,IC50,OMC-1,> 10 µM
same,IC50,HCC 2998,> 10 µM
same,IC50,TE-6,> 10 µM
same,IC50,HT,> 10 µM
same,IC50,no-10,> 10 µM
same,IC50,SW780,> 10 µM
same,IC50,MKN-7,> 10 µM
same,IC50,EM-2,> 10 µM
same,IC50,KM12,> 10 µM
same,IC50,NCI-H2030,> 10 µM
same,IC50,AM-38,> 10 µM
same,IC50,NB6,> 10 µM
same,IC50,NCI-H2052,> 10 µM
same,IC50,RS4-11,> 10 µM
same,IC50,SW 962,> 10 µM
same,IC50,EW-16,> 10 µM
same,IC50,SW 954,> 10 µM
same,IC50,A704,> 10 µM
same,IC50,SBC-5,> 10 µM
same,IC50,COLO-320-HSR,> 10 µM
same,IC50,ES6,> 10 µM
same,IC50,MHH-NB-11,> 10 µM
same,IC50,NH-12,> 10 µM
same,IC50,TE-11,> 10 µM
same,IC50,KINGS-1,> 10 µM
same,IC50,DB,> 10 µM
same,IC50,SN12C,> 10 µM
same,IC50,GR-ST,> 10 µM
same,IC50,NCI-H727,> 10 µM
same,IC50,SW837,> 10 µM
same,IC50,GAMG,> 10 µM
same,IC50,TGBC1TKB,> 10 µM
same,IC50,A2058,> 10 µM
same,IC50,DOK,> 10 µM
same,IC50,COLO-824,> 10 µM
same,IC50,NCI-N87,> 10 µM
same,IC50,U2OS,> 10 µM
same,IC50,D-263MG,> 10 µM
same,IC50,BXPC-3,> 10 µM
same,IC50,A 172,> 10 µM
same,IC50,HOP-92,> 10 µM
same,IC50,COLO-679,> 10 µM
same,IC50,SW1710,> 10 µM
same,IC50,647-V,> 10 µM
same,IC50,UMC-11,> 10 µM
same,IC50,SK-MES-1,> 10 µM
same,IC50,LS-1034,> 10 µM
same,IC50,EOL1,> 10 µM
same,IC50,MIA PaCa-2,> 10 µM
same,IC50,KY821,> 10 µM
same,IC50,HCC1569,> 10 µM
CC(=O)O[C@@H]1[C@@H](OC(C)=O)[C@@H](O)[C@H](Oc2c(-c3ccc(O)cc3)oc3cc(O)cc(O)c3c2=O)O[C@H]1C,IC50,DOHH-2,> 10 µM
same,IC50,HCC 2998,> 10 µM
same,IC50,TE-6,> 10 µM
same,IC50,HT,> 10 µM
same,IC50,no-10,> 10 µM
same,IC50,SW780,> 10 µM
same,IC50,MKN-7,> 10 µM
same,IC50,EM-2,> 10 µM
same,IC50,KM12,> 10 µM
same,IC50,NCI-H2030,> 10 µM
same,IC50,AM-38,> 10 µM
same,IC50,NB6,> 10 µM
same,IC50,NCI-H2052,> 10 µM
same,IC50,RS4-11,> 10 µM
same,IC50,SW 962,> 10 µM
same,IC50,EW-16,> 10 µM
same,IC50,SW 954,> 10 µM
same,IC50,A704,> 10 µM
same,IC50,SBC-5,> 10 µM
same,IC50,COLO-320-HSR,> 10 µM
same,IC50,ES6,> 10 µM
same,IC50,MHH-NB-11,> 10 µM
same,IC50,NH-12,> 10 µM
same,IC50,TE-11,> 10 µM
same,IC50,KINGS-1,> 10 µM
same,IC50,DB,> 10 µM
same,IC50,SN12C,> 10 µM
same,IC50,GR-ST,> 10 µM
same,IC50,NCI-H727,> 10 µM
same,IC50,SW837,> 10 µM
same,IC50,GAMG,> 10 µM
same,IC50,TGBC1TKB,> 10 µM
same,IC50,A2058,> 10 µM
same,IC50,DOK,> 10 µM
same,IC50,COLO-824,> 10 µM
same,IC50,NCI-N87,> 10 µM
same,IC50,U2OS,> 10 µM
same,IC50,D-263MG,> 10 µM
same,IC50,BXPC-3,> 10 µM
same,IC50,A 172,4.77 µM
same,IC50,HOP-92,> 10 µM
same,IC50,COLO-679,> 10 µM
same,IC50,SW1710,> 10 µM
same,IC50,647-V,> 10 µM
same,IC50,UMC-11,> 10 µM
same,IC50,SK-MES-1,> 10 µM
same,IC50,LS-1034,> 10 µM
same,IC50,EOL1,> 10 µM
same,IC50,MIA PaCa-2,> 10 µM
same,IC50,KY821,> 10 µM
same,IC50,HCC1569,> 10 µM
O=C(NOCC1CC1)c1ccc(F)c(F)c1Nc1ccc(I)cc1Cl [CI-1040],IC50,DOHH-2,8.2 µM
same,IC50,HCC 2998,5.49 µM
same,IC50,TE-6,> 10 µM
same,IC50,HT,> 10 µM
same,IC50,no-10,> 10 µM
same,IC50,SW780,3.14 µM
same,IC50,MKN-7,> 10 µM
same,IC50,EM-2,2.07 µM
same,IC50,KM12,0.241 µM
same,IC50,NCI-H2030,> 10 µM
same,IC50,AM-38,> 10 µM
same,IC50,NB6,> 10 µM
same,IC50,NCI-H2052,> 10 µM
same,IC50,RS4-11,5.67 µM
same,IC50,SW 962,> 10 µM
same,IC50,EW-16,8.08 µM
same,IC50,SW 954,8.97 µM
same,IC50,A704,> 10 µM
same,IC50,SBC-5,> 10 µM
same,IC50,COLO-320-HSR,> 10 µM
same,IC50,ES6,> 10 µM
same,IC50,MHH-NB-11,6.85 µM
same,IC50,NH-12,4.72 µM
same,IC50,TE-11,> 10 µM
same,IC50,KINGS-1,> 10 µM
same,IC50,DB,2.59 µM
same,IC50,SN12C,3.25 µM
same,IC50,GR-ST,7.4 µM
same,IC50,NCI-H727,2.92 µM
same,IC50,SW837,> 10 µM
same,IC50,GAMG,4.02 µM
same,IC50,TGBC1TKB,7.89 µM
same,IC50,A2058,2.19 µM
same,IC50,DOK,2.36 µM
same,IC50,COLO-824,> 10 µM
same,IC50,NCI-N87,> 10 µM
same,IC50,U2OS,3.67 µM
same,IC50,D-263MG,5.88 µM
same,IC50,BXPC-3,> 10 µM
same,IC50,A 172,6.49 µM
same,IC50,HOP-92,4.26 µM
same,IC50,COLO-679,0.327 µM
same,IC50,SW1710,5.62 µM
same,IC50,647-V,> 10 µM
same,IC50,UMC-11,> 10 µM
same,IC50,SK-MES-1,5.84 µM
same,IC50,LS-1034,> 10 µM
same,IC50,EOL1,0.0415 µM
same,IC50,MIA PaCa-2,3.01 µM
same,IC50,KY821,0.379 µM
same,IC50,HCC1569,> 10 µM
CN(Cc1cnc2nc(N)nc(N)c2n1)c1ccc(C(=O)N[C@@H](CCC(=O)O)C(=O)O)cc1 [METHOTREXATE],IC50,DOHH-2,0.0216 µM
same,IC50,OMC-1,> 0.2 µM
same,IC50,HCC 2998,> 0.2 µM
same,IC50,TE-6,> 0.2 µM
same,IC50,HT,0.134 µM
same,IC50,no-10,> 0.2 µM
same,IC50,SW780,0.116 µM
same,IC50,MKN-7,> 0.2 µM
same,IC50,EM-2,0.0571 µM
same,IC50,KM12,0.164 µM
same,IC50,NCI-H2030,> 0.2 µM
same,IC50,AM-38,> 0.2 µM
same,IC50,NB6,> 0.2 µM
same,IC50,NCI-H2052,> 0.2 µM
same,IC50,RS4-11,0.00705 µM
same,IC50,SW 962,> 0.2 µM
same,IC50,EW-16,> 0.2 µM
same,IC50,SW 954,> 0.2 µM
same,IC50,A704,> 0.2 µM
same,IC50,SBC-5,0.0694 µM
same,IC50,COLO-320-HSR,0.0524 µM
same,IC50,ES6,> 0.2 µM
same,IC50,MHH-NB-11,> 0.2 µM
same,IC50,NH-12,> 0.2 µM
same,IC50,TE-11,> 0.2 µM
same,IC50,KINGS-1,> 0.2 µM
same,IC50,DB,0.0213 µM
same,IC50,SN12C,> 0.2 µM
same,IC50,GR-ST,0.0363 µM
same,IC50,NCI-H727,> 0.2 µM
same,IC50,SW837,> 0.2 µM
same,IC50,GAMG,> 0.2 µM
same,IC50,TGBC1TKB,> 0.2 µM
same,IC50,A2058,> 0.2 µM
same,IC50,DOK,> 0.2 µM
same,IC50,COLO-824,> 0.2 µM
same,IC50,NCI-N87,> 0.2 µM
same,IC50,U2OS,0.182 µM
same,IC50,D-263MG,> 0.2 µM
same,IC50,BXPC-3,> 0.2 µM
same,IC50,A 172,> 0.2 µM
same,IC50,HOP-92,> 0.2 µM
same,IC50,COLO-679,> 0.2 µM
same,IC50,SW1710,> 0.2 µM
same,IC50,647-V,> 0.2 µM
same,IC50,UMC-11,> 0.2 µM
same,IC50,SK-MES-1,> 0.2 µM
same,IC50,LS-1034,> 0.2 µM
same,IC50,MIA PaCa-2,> 0.2 µM
same,IC50,HCC1569,> 0.2 µM
